Experimental data: US9663508B2, “Biaryl acyl-sulfonamide compounds as sodium channel inhibitors” (AMGEN INC., priority 2013, dated 2017)
pIC50: −log10 of the molar value.

Tests used:
[1] = biological target: human Nav 1.5 (Homo sapiens (Human), UniProt Q14524); assay: Nav 1.5 IonWorks Quattro (IWQ) in vitro assay; format: cell-based; conditions: read-out: NAV 1.5 IWQ IC50
Protocol: Nav 1.7 or Nav 1.5 Ion Works Quattro (IWQ) In Vitro Assay
HEK 293 Cells stably transfected with either human Nay 1.7 or human Nay 1.5 were recorded in population patch-clamp mode with the IonWorks® Quattro automated electrophysiology system in accordance with the manufacturer's specifications (Molecular Devices, LLC, Sunnyvale, Calif.). Sodium channel currents were measured in response to a train of depolarizations that induced successively greater inactivation.
Cells were held at −110 mV for three seconds (Nav 1.7) or half a second (Nav 1.5) from a holding voltage of −15 mV, then put through a series of 26 pulses of 150 msec duration to −20 mV at a frequency of 5 Hz. Cells were then left unclamped for a period of 3 to 8 minutes while a single concentration of test compound was added. Cells were then reclamped and put through the same voltage protocol. Current at the end of the 26th pulse to −20 mV was subtracted from the peak current evoked by the 26th pulse to −20 mV to correct for leak current. Percent block was calculated for each concentration in duplicate, and IC50 curves were fitted to percent block as a function of concentration.

[2] = biological target: human Nav1.7 (Homo sapiens (Human), UniProt Q15858); assay: Nav 1.7 in vitro PatchXpress (PX) assay; format: cell-based
Sequence of human Nav1.7 (Q15858 whole entry): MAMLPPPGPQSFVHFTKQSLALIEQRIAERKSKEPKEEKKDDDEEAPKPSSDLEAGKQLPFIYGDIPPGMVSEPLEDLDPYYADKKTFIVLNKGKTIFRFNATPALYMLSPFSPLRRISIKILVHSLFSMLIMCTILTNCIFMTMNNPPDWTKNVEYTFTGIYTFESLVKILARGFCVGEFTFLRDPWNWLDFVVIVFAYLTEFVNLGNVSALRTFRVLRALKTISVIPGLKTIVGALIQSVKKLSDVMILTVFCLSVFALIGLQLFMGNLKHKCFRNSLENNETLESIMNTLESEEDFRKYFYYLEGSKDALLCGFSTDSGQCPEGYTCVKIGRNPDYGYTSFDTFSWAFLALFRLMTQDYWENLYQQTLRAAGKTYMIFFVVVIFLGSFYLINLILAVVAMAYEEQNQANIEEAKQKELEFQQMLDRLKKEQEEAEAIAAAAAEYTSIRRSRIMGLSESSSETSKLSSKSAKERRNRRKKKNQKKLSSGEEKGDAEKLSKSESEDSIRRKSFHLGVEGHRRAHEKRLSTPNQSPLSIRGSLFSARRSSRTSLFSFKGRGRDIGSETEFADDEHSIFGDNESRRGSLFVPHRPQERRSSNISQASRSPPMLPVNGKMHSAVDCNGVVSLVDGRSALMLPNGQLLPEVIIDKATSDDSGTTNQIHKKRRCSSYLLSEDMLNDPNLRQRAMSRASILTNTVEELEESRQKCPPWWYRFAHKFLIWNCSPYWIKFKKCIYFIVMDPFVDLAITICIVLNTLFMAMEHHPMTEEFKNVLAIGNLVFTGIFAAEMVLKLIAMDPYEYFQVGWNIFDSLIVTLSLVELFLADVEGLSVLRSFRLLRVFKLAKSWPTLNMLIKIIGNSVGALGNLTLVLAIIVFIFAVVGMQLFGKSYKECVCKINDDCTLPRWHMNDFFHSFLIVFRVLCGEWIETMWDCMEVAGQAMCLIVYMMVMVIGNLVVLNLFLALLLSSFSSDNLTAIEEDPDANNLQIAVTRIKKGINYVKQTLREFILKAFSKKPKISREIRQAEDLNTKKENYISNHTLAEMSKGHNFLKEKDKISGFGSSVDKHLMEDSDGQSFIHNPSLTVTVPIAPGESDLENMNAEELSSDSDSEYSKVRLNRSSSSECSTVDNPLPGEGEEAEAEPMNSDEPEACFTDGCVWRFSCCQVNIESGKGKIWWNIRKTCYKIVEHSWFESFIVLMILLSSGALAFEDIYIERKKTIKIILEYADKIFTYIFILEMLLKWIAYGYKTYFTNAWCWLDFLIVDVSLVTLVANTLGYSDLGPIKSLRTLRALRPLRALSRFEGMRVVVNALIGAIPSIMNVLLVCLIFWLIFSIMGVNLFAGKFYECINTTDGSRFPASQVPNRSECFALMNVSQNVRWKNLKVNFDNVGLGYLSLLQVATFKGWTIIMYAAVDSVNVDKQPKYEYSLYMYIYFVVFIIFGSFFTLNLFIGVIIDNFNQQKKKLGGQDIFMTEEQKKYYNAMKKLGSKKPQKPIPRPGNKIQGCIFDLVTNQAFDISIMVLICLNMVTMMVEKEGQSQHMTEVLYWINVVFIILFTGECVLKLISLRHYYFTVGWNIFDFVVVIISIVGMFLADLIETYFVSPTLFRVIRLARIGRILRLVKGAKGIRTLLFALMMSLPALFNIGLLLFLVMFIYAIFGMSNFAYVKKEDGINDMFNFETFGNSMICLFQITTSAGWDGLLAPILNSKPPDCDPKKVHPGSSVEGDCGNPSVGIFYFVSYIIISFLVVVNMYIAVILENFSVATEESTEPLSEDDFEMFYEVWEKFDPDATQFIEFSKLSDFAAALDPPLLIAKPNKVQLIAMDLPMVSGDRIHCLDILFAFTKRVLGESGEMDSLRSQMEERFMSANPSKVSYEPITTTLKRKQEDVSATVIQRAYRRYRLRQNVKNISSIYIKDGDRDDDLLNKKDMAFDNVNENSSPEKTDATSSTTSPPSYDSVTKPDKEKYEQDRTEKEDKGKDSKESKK

Sequence of human Nav 1.5 (Q14524 whole entry): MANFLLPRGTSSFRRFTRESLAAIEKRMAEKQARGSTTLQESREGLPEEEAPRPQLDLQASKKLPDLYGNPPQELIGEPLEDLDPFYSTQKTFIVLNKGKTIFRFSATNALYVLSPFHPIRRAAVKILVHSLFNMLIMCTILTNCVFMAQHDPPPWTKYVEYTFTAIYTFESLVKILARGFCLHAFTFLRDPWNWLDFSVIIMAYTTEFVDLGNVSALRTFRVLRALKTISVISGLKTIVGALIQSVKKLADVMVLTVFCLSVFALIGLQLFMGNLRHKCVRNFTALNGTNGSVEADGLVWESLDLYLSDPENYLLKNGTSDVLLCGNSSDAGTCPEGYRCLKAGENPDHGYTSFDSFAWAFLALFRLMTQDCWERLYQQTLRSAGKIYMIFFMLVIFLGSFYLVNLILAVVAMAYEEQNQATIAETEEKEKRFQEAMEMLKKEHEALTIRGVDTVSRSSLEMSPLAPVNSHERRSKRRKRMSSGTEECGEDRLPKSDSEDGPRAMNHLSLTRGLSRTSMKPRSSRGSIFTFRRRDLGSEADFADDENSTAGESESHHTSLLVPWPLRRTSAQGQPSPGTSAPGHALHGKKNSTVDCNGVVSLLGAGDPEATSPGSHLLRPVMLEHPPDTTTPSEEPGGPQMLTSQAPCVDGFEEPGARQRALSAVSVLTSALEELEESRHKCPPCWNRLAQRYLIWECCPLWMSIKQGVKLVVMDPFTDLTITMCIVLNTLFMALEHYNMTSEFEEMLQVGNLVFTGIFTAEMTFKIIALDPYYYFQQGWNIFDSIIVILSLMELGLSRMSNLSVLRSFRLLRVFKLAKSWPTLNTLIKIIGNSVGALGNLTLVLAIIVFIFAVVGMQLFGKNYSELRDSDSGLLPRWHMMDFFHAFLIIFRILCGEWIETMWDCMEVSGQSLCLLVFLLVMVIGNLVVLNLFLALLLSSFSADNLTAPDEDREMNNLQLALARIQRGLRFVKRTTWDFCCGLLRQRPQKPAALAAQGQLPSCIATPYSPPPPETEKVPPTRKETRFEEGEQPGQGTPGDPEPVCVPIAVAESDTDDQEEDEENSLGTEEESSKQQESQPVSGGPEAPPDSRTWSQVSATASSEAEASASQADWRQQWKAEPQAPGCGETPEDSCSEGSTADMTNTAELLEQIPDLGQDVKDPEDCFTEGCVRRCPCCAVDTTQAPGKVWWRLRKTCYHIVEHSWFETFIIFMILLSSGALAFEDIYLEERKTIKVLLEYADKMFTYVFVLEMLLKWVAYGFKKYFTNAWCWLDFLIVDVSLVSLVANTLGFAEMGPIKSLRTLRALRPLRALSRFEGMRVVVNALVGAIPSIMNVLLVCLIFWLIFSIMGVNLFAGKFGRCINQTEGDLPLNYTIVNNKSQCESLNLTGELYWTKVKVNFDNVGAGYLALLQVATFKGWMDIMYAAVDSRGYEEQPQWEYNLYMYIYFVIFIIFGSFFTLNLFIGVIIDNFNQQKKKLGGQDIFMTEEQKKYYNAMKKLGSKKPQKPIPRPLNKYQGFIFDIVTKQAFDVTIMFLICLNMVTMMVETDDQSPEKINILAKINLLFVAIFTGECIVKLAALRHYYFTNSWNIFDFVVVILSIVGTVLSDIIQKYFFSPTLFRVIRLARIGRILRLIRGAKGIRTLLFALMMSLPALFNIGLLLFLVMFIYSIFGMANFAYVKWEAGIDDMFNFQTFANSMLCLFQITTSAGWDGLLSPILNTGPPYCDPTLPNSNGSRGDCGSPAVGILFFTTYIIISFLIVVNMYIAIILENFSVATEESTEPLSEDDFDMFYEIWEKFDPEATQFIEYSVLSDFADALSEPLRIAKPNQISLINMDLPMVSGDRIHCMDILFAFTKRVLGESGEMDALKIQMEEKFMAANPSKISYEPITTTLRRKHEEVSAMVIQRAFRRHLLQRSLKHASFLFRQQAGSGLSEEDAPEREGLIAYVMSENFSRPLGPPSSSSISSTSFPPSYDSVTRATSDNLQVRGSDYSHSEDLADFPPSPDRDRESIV

Compound | pIC50 [2] | pIC50 [1]
Cc1cc(C(=O)NS(C)(=O)=O)c(F)cc1-c1cnc(Oc2c(F)cc(F)cc2Cl)c(Cl)c1 [Example 666, 4-(5-chloro-6-(2-chloro-4,6-difluorophenoxy)-3-pyridinyl)-2-fluoro-5-methyl-N-(methylsulfonyl)benzamide] | 7.30 | 5.47
Cc1cc(C(=O)NS(C)(=O)=O)c(F)cc1-c1cnc(O[C@H](C)c2ccc(F)cc2Cl)c(Cl)c1 [Example 652, 4-(5-chloro-6-((1R)-1-(2-chloro-4-fluorophenyl)ethoxy)-3-pyridinyl)-2-fluoro-5-methyl-N-(methylsulfonyl)benzamide, 4-(5-chloro-6-((1S)-1-(2-chloro-4-fluorophenyl)ethoxy)-3-pyridinyl)-2-fluoro-5-methyl-N-(methylsulfonyl)benzamide] | 7.18 | < 5.52
CS(=O)(=O)NC(=O)c1cc(Cl)c(-c2cnc(Oc3cc(F)cc(F)c3F)c(Cl)c2)cc1F [Example 589, 5-chloro-4-(5-chloro-6-(2,3,5-trifluorophenoxy)-3-pyridinyl)-2-fluoro-N-(methylsulfonyl)benzamide] | 7.30 | < 5.52
Cc1cc(C(=O)NS(C)(=O)=O)c(F)cc1-c1cnc(O[C@H]2C[C@H]3CC[C@@H]2C3)c(Cl)c1 [Example 635, 4-(6-((1R,2S,4S)-bicyclo[2.2.1]hept-2-yloxy)-5-chloro-3-pyridinyl)-2-fluoro-5-methyl-N-(methylsulfonyl)benzamide] | 7.09 | < 5.52
Cc1cc(C(=O)NS(C)(=O)=O)c(F)cc1-c1cnc(Oc2ccc(Br)cc2)c(Cl)c1 [Example 609, 4-(6-(4-bromophenoxy)-5-chloro-3-pyridinyl)-2-fluoro-5-methyl-N-(methylsulfonyl)benzamide] | 7.11 | < 5.52
COc1ccccc1C[C@@H](C)Oc1ncc(-c2cc(F)c(C(=O)NS(C)(=O)=O)cc2C)cc1Cl [Example 649, 4-(5-chloro-6-((1R)-2-(2-methoxyphenyl)-1-methylethoxy)-3-pyridinyl)-2-fluoro-5-methyl-N-(methylsulfonyl)benzamide, 4-(5-chloro-6-((1S)-2-(2-methoxyphenyl)-1-methylethoxy)-3-pyridinyl)-2-fluoro-5-methyl-N-(methylsulfonyl)benzamide] | 7.03 | < 5.52
Cc1cc(Br)ccc1Oc1ncc(-c2cc(F)c(C(=O)NS(C)(=O)=O)cc2C)cc1Cl [Example 614, 4-(6-(4-bromo-2-methylphenoxy)-5-chloro-3-pyridinyl)-2-fluoro-5-methyl-N-(methylsulfonyl)benzamide] | 7.17 | < 5.52
Cc1cc(C(=O)NS(C)(=O)=O)c(F)cc1-c1cnc(N2CCC[C@@H]2c2ccc(Cl)c(Cl)c2)c(Cl)c1 [Example 658, 4-(5-chloro-6-((2R)-2-(3,4-dichlorophenyl)-1-pyrrolidinyl)-3-pyridinyl)-2-fluoro-5-methyl-N-(methylsulfonyl)benzamide, 4-(5-chloro-6-((2S)-2-(3,4-dichlorophenyl)-1-pyrrolidinyl)-3-pyridinyl)-2-fluoro-5-methyl-N-(methylsulfonyl)benzamide] | 7.05 | < 5.52
Cc1cc(C(=O)NS(C)(=O)=O)c(F)cc1-c1cnc(Oc2cc(F)cc(F)c2)c(Cl)c1 [Example 630, 4-(5-chloro-6-(3,5-difluorophenoxy)-3-pyridinyl)-2-fluoro-5-methyl-N-(methylsulfonyl)benzamide] | 7.11 | < 5.52
Cc1cc(C(=O)NS(C)(=O)=O)c(F)cc1-c1cnc(Oc2cc(Cl)ccc2F)c(Cl)c1 [Example 617, 4-(5-chloro-6-(5-chloro-2-fluorophenoxy)-3-pyridinyl)-2-fluoro-5-methyl-N-(methylsulfonyl)benzamide] | 7.03 | < 5.52
Cc1cc(C(=O)NS(C)(=O)=O)c(F)cc1-c1cnc(O[C@H](C)c2cc(F)c(F)cc2F)c(Cl)c1 [Example 660, 4-(5-chloro-6-((1R)-1-(2,4,5-trifluorophenyl)ethoxy)-3-pyridinyl)-2-fluoro-5-methyl-N-(methylsulfonyl)benzamide, 4-(5-chloro-6-((1S)-1-(2,4,5-trifluorophenyl)ethoxy)-3-pyridinyl)-2-fluoro-5-methyl-N-(methylsulfonyl)benzamide] | 7.03 | 5.19
Cc1cc(C(=O)NS(C)(=O)=O)c(F)cc1-c1cnc(Oc2cc(F)c(Cl)c(F)c2)c(Cl)c1 [Example 668, 4-(5-chloro-6-(4-chloro-3,5-difluorophenoxy)-3-pyridinyl)-2-fluoro-5-methyl-N-(methylsulfonyl)benzamide] | 7.01 | < 5.00
CC[C@@H](Oc1ncc(-c2cc(F)c(C(=O)NS(C)(=O)=O)cc2Cl)cc1Cl)c1ccc(F)cc1 [Example 596, 5-chloro-4-(5-chloro-6-(((1R)-1-(4-fluorophenyl)propyl)oxy)-3-pyridinyl)-2-fluoro-N-(methylsulfonyl)benzamide, 5-chloro-4-(5-chloro-6-(((1S)-1-(4-fluorophenyl)propyl)oxy)-3-pyridinyl)-2-fluoro-N-(methylsulfonyl)benzamide] | 7.06 | < 5.52

Further lines, with some results ahead:

pIC50 [2] | Compound | pIC50 [1]
7.32 | Cc1cc(C(=O)NS(C)(=O)=O)c(F)cc1-c1cnc(Oc2c(C)ccc3ccccc23)c(Cl)c1 [Example 608, 4-(5-chloro-6-((2-methyl-1-naphthalenyl)oxy)-3-pyridinyl)-2-fluoro-5-methyl-N-(methylsulfonyl)benzamide] | < 5.52
7.08 | CS(=O)(=O)NC(=O)c1cc(Cl)c(-c2cnc(Oc3ccc(F)c(F)c3F)c(Cl)c2)cc1F [Example 588, 5-chloro-4-(5-chloro-6-(2,3,4-trifluorophenoxy)-3-pyridinyl)-2-fluoro-N-(methylsulfonyl)benzamide] | < 5.52
7.15 | COc1cc(C(=O)NS(C)(=O)=O)c(F)cc1-c1cnc(Oc2ccc(F)c(F)c2F)c(Cl)c1 [Example 701, 4-(5-chloro-6-(2,3,4-trifluorophenoxy)-3-pyridinyl)-2-fluoro-5-methoxy-N-(methylsulfonyl)benzamide] | < 5.52
7.08 | Cc1cc(C(=O)NS(C)(=O)=O)c(F)cc1-c1cnc(Oc2c(Cl)cc(F)cc2Cl)c(Cl)c1 [Example 644, 4-(5-chloro-6-(2,6-dichloro-4-fluorophenoxy)-3-pyridinyl)-2-fluoro-5-methyl-N-(methylsulfonyl)benzamide] | < 5.52
7.15 | Cc1ccc(Cl)cc1Oc1ncc(-c2cc(F)c(C(=O)NS(C)(=O)=O)cc2C)cc1Cl [Example 616, 4-(5-chloro-6-(5-chloro-2-methylphenoxy)-3-pyridinyl)-2-fluoro-5-methyl-N-(methylsulfonyl)benzamide] | < 5.52
7.28 | COc1cc(C(=O)NS(C)(=O)=O)c(F)cc1-c1cnc(Oc2cc(Cl)cc(Cl)c2)c(Cl)c1 [Example 695, 4-(5-chloro-6-(3,5-dichlorophenoxy)-3-pyridinyl)-2-fluoro-5-methoxy-N-(methylsulfonyl)benzamide] | < 5.52
7.02 | Cc1cc(C(=O)NS(C)(=O)=O)c(F)cc1-c1cnc(Oc2cccc(C)c2F)c(Cl)c1 [Example 618, 4-(5-chloro-6-(2-fluoro-3-methylphenoxy)-3-pyridinyl)-2-fluoro-5-methyl-N-(methylsulfonyl)benzamide] | < 5.52
